Results on 29 compounds are retold here after patent publication US6878742B2, “Heterocyclic sulfonamide inhibitors of beta amyloid production” (Wyeth, priority 2000, dated 2005).

Each structure is given as a SMILES string.

One experiment relates to amyloid precursor protein (APP) proteolysis. Kind of experiment: Repressor Release Assay (RRA). Type of experiment: cell-based. The following applies: Conc 20 μg/mL; luciferase activity over diluent control. An outline of the steps: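 This repressor release assay monitors APP proteolysis in mammalian cells. Transfected CHO-K1 cells (pRSVO-luc plus APP-lacI) were seeded at […], treated with compound diluted in 25 mM Hepes, then incubated 36-48 hours. After replacing media with PBS and adding LucLite lysis/substrate buffer, luminescence was measured, and fold increase over diluent control was calculated.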
Consider `CC[C@H](C)[C@@H](CO)NS(=O)(=O)c1cccs1` [Example 210, N-[(1S,2S)-1-(Hydroxymethyl)-2-methylbutyl]thiophene-2-sulfonamide], for which the “APPI Fold Increase” value turned out to be 7.7 fold.

The experiment is the same for the next values; noted with them: Conc 20 μg/mL; luciferase activity over diluent control; read-out: APPI Fold Increase.
Turning to `C=C(C)CC(O)C1(NS(=O)(=O)c2ccc(Cl)s2)CCCCC1` (centres unmarked) [Example 198, 5-chloro-N-[1-(1-hydroxy-3-methylbut-3-enyl)cyclohexyl]thiophene-2-sulfonamide], the fold induction at 20 µg/mL came out at 4.4.

As for `COC1CCC([C@@H](CO)NS(=O)(=O)c2ccc(Cl)s2)CC1` (stereo partly drawn) [Example 199, 5-Chloro-N-[(S)-2-hydroxy-1-(4-methoxycyclohexyl)ethyl]thiophene-2-sulfonamide], the fold induction at 20 µg/mL is 2.8.

In the case of `O=S(=O)(N[C@H](CO)C1CCC(O)CC1)c1ccc(Cl)s1` (stereo partly drawn) [Example 199A, 5-Chloro-N-[(S)-2-hydroxy-1-(4-hydroxycyclohexyl)ethyl]thiophene-2-sulfonamide], the fold induction at 20 µg/mL was 2.4.

With `CCCOC1CCC([C@@H](CO)NS(=O)(=O)c2ccc(Cl)s2)CC1` (stereo partly drawn) [Example 200, 5-chloro-N-[(S)-2-hydroxy-1-(4-propoxycyclohexyl)ethyl]thiophene-2-sulfonamide], the fold induction at 20 µg/mL was determined as 2.

For the compound `C=CCOC1CCC([C@@H](CO)NS(=O)(=O)c2ccc(Cl)s2)CC1` (stereo partly drawn) [Example 201, N-{(S)-1-[4-(allyloxy)cyclohexyl]-2-hydroxyethyl}-5-chlorothiophene-2-sulfonamide], the fold induction at 20 µg/mL turned out to be 2.2.

`O=S(=O)(N[C@H](CO)C1CCC(OCc2ccccc2)CC1)c1ccc(Cl)s1` (stereo partly drawn) [Example 202, N-{(S)-1-[4-(benzyloxy)cyclohexyl]-2-hydroxyethyl}-5-chlorothiophene-2-sulfonamide]: the fold induction at 20 µg/mL stood at 2.

Consider `CC(=O)N1CCC(CO)(NS(=O)(=O)c2ccc(Cl)s2)CC1` [Example 203, N-[1-Acetyl-4-(hydroxymethyl)piperidin-4-yl]-5-chlorothiophene-2-sulfonamide], for which the fold induction at 20 µg/mL came to 1.5.

For `CC[C@H](C)[C@@H](CO)NS(=O)(=O)c1ccc(Cl)o1` [Example 204, 5-Chloro-N-[(1S,2S)-1-(hydroxymethyl)-2-methylbutyl]-2-furansulfonamide], the fold induction at 20 µg/mL stood at 2.8.

Consider `CCCCC(CCCC)[C@@H](CO)NS(=O)(=O)c1ccc(Cl)s1` [Example 205, N-[(1S)-2-Butyl-1-(hydroxymethyl)hexyl]-5-chloro-2-thiophenesulfonamide], for which the fold induction at 20 µg/mL amounted to 2.6.

With `CC[C@H](C)[C@@H](CO)NS(=O)(=O)c1ccco1` [Example 206, N-[(1S,2S)-1-(hydroxymethyl)-2-methylbutyl]-2-furansulfonamide], the fold induction at 20 µg/mL amounted to 1.8.

`CC[C@H](C)[C@@H](CO)NS(=O)(=O)c1ccc(I)s1` [Example 207, N-[(1S,2S)-1-(Hydroxymethyl)-2-methylbutyl]-5-iodo-2-thiophenesulfonamide]: the fold induction at 20 µg/mL came out at 5.6.

Take `CC[C@H](C)[C@@H](CO)NS(=O)(=O)c1ccc(F)s1` [Example 208, 5-Fluoro-N-[(1S,2S)-1-(hydroxymethyl)-2-methylbutyl]-2-thiophenesulfonamide]: the fold induction at 20 µg/mL was 16.5.

Turning to `CC(C)(C)OC(=O)N1CCC([C@@H](CO)NS(=O)(=O)c2ccc(Cl)s2)CC1` [Example 209, 4-[1-(5-Chloro-thiophene-2-sulfonylamino)-2-hydroxy-ethyl]-piperidine-1-carboxylic acid tert-butyl ester], the fold induction at 20 µg/mL is 2.1.

For `O=S(=O)(N[C@H](CO)C1CCC(NCc2ccccc2)CC1)c1ccc(Cl)s1` (stereo partly drawn) [Example 211, 5-Chloro-N-[(S)-2-hydroxy-1-(4-benzylaminocyclohexyl)ethyl]thiophene-2-sulfonamide], the fold induction at 20 µg/mL was 1.9.

With `CNC1CCC([C@@H](CO)NS(=O)(=O)c2ccc(Cl)s2)CC1` (stereo partly drawn) [Example 212, 5-chloro-N-[(S)-2-hydroxy-1-(4-methylaminocyclohexyl)ethyl]thiophene-2-sulfonamide], the fold induction at 20 µg/mL turned out to be 1.7.

For `CCNC1CCC([C@@H](CO)NS(=O)(=O)c2ccc(Cl)s2)CC1` (stereo partly drawn) [Example 213, 5-chloro-N-[(S)-2-hydroxy-1-(4-ethylaminocyclohexyl)ethyl]thiophene-2-sulfonamide], the fold induction at 20 µg/mL was found to be 1.6.

With `C=CCNC1CCC([C@@H](CO)NS(=O)(=O)c2ccc(Cl)s2)CC1` (stereo partly drawn) [Example 215, 5-chloro-N-[(S)-2-hydroxy-1-(4-allylaminocyclohexyl)ethyl]thiophene-2-sulfonamide], the fold induction at 20 µg/mL was 2.

As to `O=S(=O)(N[C@H](CO)C1CCC(NCc2cccnc2)CC1)c1ccc(Cl)s1` (stereo partly drawn) [Example 216, 5-chloro-N-[(S)-2-hydroxy-1-(4-(3-pyridyl)methylaminocyclohexyl)ethyl]thiophene-2-sulfonamide], the fold induction at 20 µg/mL was 1.5.

As to `O=S(=O)(N[C@H](CO)C1CCC(N2CCOCC2)CC1)c1ccc(Cl)s1` (stereo partly drawn) [Example 217, 5-chloro-N-[(S)-2-hydroxy-1-(4-morpholinocyclohexyl)ethyl]thiophene-2-sulfonamide], the fold induction at 20 µg/mL amounted to 1.8.

On to `O=S(=O)(N[C@H](CO)C1CCC(NCc2ccncc2)CC1)c1ccc(Cl)s1` (stereo partly drawn) [Example 218, 5-chloro-N-[(S)-2-hydroxy-1-(4-(4-pyridyl)methylaminocyclohexyl)ethyl]thiophene-2-sulfonamide], for which the fold induction at 20 µg/mL stood at 2.8.

Take `O=S(=O)(N[C@H](CO)C1CCC(NCc2ccccn2)CC1)c1ccc(Cl)s1` (stereo partly drawn) [Example 219, 5-chloro-N-[(S)-2-hydroxy-1-(4-(2-pyridyl)methylaminocyclohexyl)ethyl]thiophene-2-sulfonamide]: the fold induction at 20 µg/mL was 2.3.

As for `CCOC(=O)CNC1CCC([C@@H](CO)NS(=O)(=O)c2ccc(Cl)s2)CC1` (stereo partly drawn) [Example 220, 5-chloro-N-[(S)-2-hydroxy-1-(4-(carboethoxymethyl)aminocyclohexyl)ethyl]thiophene 2-sulfonamide], the fold induction at 20 µg/mL was found to be 2.5.

With `CCC(CC)[C@@H](C=O)NS(=O)(=O)c1ccc(Cl)s1` [Example 221A, 5-Chloro-N-[(S)-2-ethyl-1-formylbutyl]thiophene-2-sulfonamide], the fold induction at 20 µg/mL was 4.9.

Turning to `CCC(CC)[C@H](NS(=O)(=O)c1ccc(Cl)s1)C(C)(C)O` [Example 223, 5-Chloro-N-[(S)-2-ethyl-1-(1-hydroxy-1-methylethyl)butyl]thiophene-2-sulfonamide], the fold induction at 20 µg/mL was found to be 5.6.

`O=S(=O)(N[C@H](CO)C1CCNCC1)c1ccc(Cl)s1` [Example 225, 5-Chloro-N-[(S)-2-hydroxy-1-piperidin-4-ylethyl]thiophene-2-sulfonamide]: the fold induction at 20 µg/mL was determined as 8.

Take `CCC(CC)[C@@H](CO)NS(=O)(=O)c1cccs1` [Example 226, N-[(S)-2-Ethyl-1-(hydroxymethyl)butyl]thiophene-2-sulfonamide]: the fold induction at 20 µg/mL was 7.6.

With `CCC(CC)[C@@H](CO)NS(=O)(=O)c1ccc(F)s1` [Example 227, N-[(S)-2-Ethyl-1-(hydroxymethyl)butyl]-5-fluorothiophene-2-sulfonamide], the fold induction at 20 µg/mL stood at 26.3.

`O=S(=O)(N[C@H](CO)C1Cc2ccccc2C1)c1ccc(Cl)s1` [Example 228, 5-Chloro-N-[(1S)-1-(2,3-dihydro-1H-inden-2-yl)-2-hydroxyethyl]thiophene-2-sulfonamide]: the fold induction at 20 µg/mL came to 9.9.
